Results taken from PMC9961652 (International Journal of Molecular Sciences, 2023).
Read-outs that look alike come from different tables or passages of the source.

Key:
washed human platelets = test: Collagen-induced platelet aggregation, light transmission aggregometry (Born method); type: cell-based; conditions: for activity at 20 µM / IC50: Platelet; for activity at 20 µM: compound 20 µM, means ± SDs of three experiments, 100% = agonist alone; for IC50: Homo sapiens
Experimental: Light transmission aggregometry, i.e., the Born method, was used to determine in vitro antiplatelet aggregation activity using collagen as the agonist for platelet aggregation. Collagen was selected as the agonist, since it is the most thrombogenic component of the subendothelial layer. Collagen also serves as a substrate for platelet adhesion and as an inducer of platelet activation.
All experiments using human blood from healthy volunteers were performed according to the protocols approved by the Institutional Review Board at Cincinnati Children’s Hospital Medical Center, Cincinnati, Ohio. Each volunteer was required to sign an informed consent form approved by the IRB. Procedures for drawing human blood, isolating platelet-rich plasma (PRP), and preparing washed platelet suspensions were the same as those previously reported. […] PRP was obtained by means of the centrifugation of blood at 1400 rpm for 15 min at room temperature. PRP was centrifuged at 4000 rpm for 10 min at room temperature, and the platelet pellet was resuspended in HEPES Tyrode’s solution (pH 7.4) without calcium. Platelets were counted using Hemavet 950FS (Drew Scientific, Oxford, CT, USA), and the count was adjusted to 2.5 × 10^8/mL for aggregation studies.
The in vitro antiplatelet activity of the compounds was assayed on washed human platelets using light transmission aggregometry. Platelet aggregation was performed using a 4-channel Lumi-aggregometer (Chronolog, PA, USA) at 37 °C and stirring speed of 900 rpm. A volume of 250 µL of washed human platelets (2.5 × 10^8/mL) was pre-warmed to 37 °C along with the compounds or DMSO (0.1%) for 2 min before the addition of agonists such as collagen, AA, U46619 (a stable synthetic analog of thromboxane A2), ADP, and thrombin. For ATP secretion, platelets were pre-incubated with a luciferin/luciferase kit (Chrono-lume®) for 30 s at 37 °C before the addition of the agonist. The reactions were allowed to proceed for at least 4 min, and the results of platelet aggregation and ATP secretion were determined using Aggrolink software. Platelet aggregation was expressed as the maximum change in the light transmission, where the 100% value corresponded to treatment with the agonist alone. Compounds were evaluated in triplicate at nine compound concentrations ranging from 50 µM to 1 µM.

RhoA-LARG interaction = target: T1, RhoA-LARG interaction (Homo sapiens, UniProt P61586); test: In vitro complex-formation assay of RhoA with LARG DH-PH domain; type: binding; conditions: 20 µM; pull-down assay conditions, 4 °C, 1 h
T1 construct: 100 ng of purified full-length RhoA
T1 sequence (P61586 whole entry, the tested form may be a part): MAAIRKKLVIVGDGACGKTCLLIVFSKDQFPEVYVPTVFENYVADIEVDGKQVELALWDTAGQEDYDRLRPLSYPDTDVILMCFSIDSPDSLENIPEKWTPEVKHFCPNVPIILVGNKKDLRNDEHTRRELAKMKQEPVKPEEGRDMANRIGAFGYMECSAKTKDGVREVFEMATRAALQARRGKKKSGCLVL
Experimental: (A) A complex-formation assay tested the inhibitory effects of 20 µM UC-177618 and UC-177619 on RhoA interaction with the LARG DH-PH domain. […] After incubating the compound-RhoA-LARG mixture at 4 °C for 1 h, the beads associated with RhoA were detected with anti-RhoA Western blotting. (B,C) Top view of the predicted structural contacts of UC-177618 and UC-177619 in the binding pocket around the Trp58 residue of RhoA.
(A) A complex-formation assay tested the inhibitory effects of R-G04 and S-G04 on RhoA interaction with the LARG DH-PH domain. MBP-(His)6-tagged LARG (100 ng) was immobilized on Amylose beads. Binding buffer containing full-length RhoA (100 ng) was pre-incubated with different concentrations of R-G04 (25 µM or 50 µM), and S-G04 (5 µM or 10 µM) was added to the beads. After incubating the compound-RhoA-LARG mixture at 4 °C for 1 h, the beads associated with RhoA were detected with anti-RhoA Western blotting. (B) Top view of the predicted structural contacts of R-G04 and S-G04 in the binding pocket around the Trp58 residue of RhoA.
In total, 100 ng of purified MBP (Maltose-binding protein)-(His)6-tagged LARG DH-PH was immobilized on 20 µL of suspended amylose beads (No. E8021S; New England Biolabs Inc., Ipswich, MA, USA) by incubating them in an orbital shaker at 4 °C for 30 min in binding buffer (20 mM Tris·HCl (pH 7.6), 100 mM NaCl, 0.01% Triton X-100, 5mM EDTA, and 5 mM MgCl2). The compounds were added to the binding buffer containing 100 ng of purified full-length RhoA and pre-incubated at 4 °C for 30 min under constant agitation. The Amylose beads bound to LARG were washed thrice with binding buffer to get rid of unbound LARG, and the pre-incubated compound-RhoA mixture was added to the beads. This LARG-compound-RhoA mixture was incubated in the orbital shaker at 4 °C for 1 h. The beads were washed three times, and the amount of RhoA protein co-precipitated with the MBP-fusion-bound beads was detected with anti-RhoA Western blotting.

RhoA = test: RhoA-GTP formation, GST-Rhotekin effector pull-down assay in collagen-stimulated platelets; type: cell-based, human; conditions: 20 µM, 2 min pre-incubation; collagen 1 µg/mL for 4 min
Experimental: Next, the ability of the six compounds to suppress RhoA activity in platelets was assessed by subjecting them to a GST (Glutathione-S-transferase)-Rhotekin effector pull-down assay. The compounds were incubated with washed human platelets for 2 min before being stimulated with 1 µg/mL collagen. The analogs inhibited the activation of RhoA at the 20 µM concentration (Figure 2A,B). […] After confirming that these analogs could prevent RhoA activation and the phosphorylation of the MLC, their ability to disrupt complex-formation between RhoA and LARG was tested. […] These findings indicate that the active analogs inhibit RhoA activation by disrupting the binding between RhoA and its GEF.
(A,B) Washed human platelets were incubated with collagen (1 µg/mL) for 4 min, and the levels of RhoA-GTP formation were quantified with a GST-Rhotekin effector pull-down assay. The platelets were pre-incubated with 20 µM UC-177618, UC-177619, UC-177628, UC-177629, […], or […] for 2 min before being stimulated with collagen. The addition of ice-cold lysis buffer terminated the reaction. […] Relative amounts of the GTP-bound form of RhoA were quantified with densitometry measurements of total RhoA (T-RhoA) and normalized to untreated platelets. (C,D) The addition of 20 µM of active Rhosin-related compounds to washed human platelets 2 min before stimulation with collagen blocked the phosphorylation of the myosin light chain (p-MLC). The reactions were terminated after 4 min by adding 4x Laemmli sample buffer. The samples were processed for Western blotting and probed for MLC and p-MLC, and phosphorylation was quantified by measuring the densitometry of total MLC (T-MLC). The differences between DMSO- and Rhosin-related compounds were analyzed with t-test, and the results are shown as means ± SDs of three independent experiments. (* p < 0.05, ** p < 0.01, *** p < 0.001, and **** p < 0.0001).
The relative levels of RhoA-GTP in washed human platelets were quantified with effector domains GST-Rhotekin pull-down assays as previously reported. A volume of 250 µL of washed human platelets (2.5 × 10^8/mL) was pre-warmed to 37 °C along with the compounds or DMSO (0.1%) for 2 min before being stimulated with collagen (1 µg/mL). The reactions were terminated 4 min after collagen stimulation by adding ice-cold lysis buffer (20 mM Tris·HCl (pH 7.6), 100 mM NaCl, 1% Triton X-100, 0.2% Sodium Deoxycholate, 10 mM MgCl2, 1 mM dithiothreitol, 1x protease inhibitor cocktail, and 1x phosphatase inhibitor cocktail). The supernatants were collected and subjected to the GST-Rhotekin pull-down assay. The total cell lysates were also blotted in parallel. GTP-bound RhoA was quantitatively detected with Western blotting using an anti-RhoA antibody. The relative amounts of RhoA were quantified with densitometry measurements and normalized to the untreated platelets.

[1] = washed human platelets, read-out: % Platelet Aggregation, Collagen (1 µg/mL)
[2] = washed human platelets, read-out: % Platelet Aggregation, Collagen (5 µg/mL)
[3] = collagen 1 µg/mL, washed human platelets, dose-response curves, read-out: IC50 (95% CI) of platelet aggregation
[4] = collagen-induced platelet aggregation, compounds without IC50 determination estimated from percent inhibition at 20 µM, read-out: IC50 (SAR table)

Row | Compound | IC50 (washed human platelets; [3]) [µM] | IC50 (washed human platelets; [4]) [µM] | LARG binding to RhoA (RhoA-LARG interaction) | activity at 20 µM (washed human platelets; [1]) [%] | activity at 20 µM (washed human platelets; [2]) [%] | RhoA-GTP formation (RhoA) | activity in collagen-induced platelet aggregation (SAR statement) (washed human platelets; relative to the quinoline analogs)
1 | CSCCNc1nc(SCCC(F)(F)F)nc2c1ncn2[C@@H]1O[C@H](COP(=O)(O)OP(=O)(O)C(Cl)(Cl)P(=O)(O)O)[C@@H](O)[C@H]1O [Cangrelor, reference compound] |  |  |  | 27.7 ± 2.52 | 63.3 ± 4.16 |  | 
2 | CN(Nc1ccnc2cc(C(F)(F)F)ccc12)C(N)=S [UC177623] |  |  |  | 84.3 ± 9 | 90.7 ± 6.2 |  | 
3 | O=C1OCCN1Nc1ccnc2ccccc12 [UC-177613] |  |  |  | 84.3 ± 15.5 | 95.2 ± 4.9 |  | 
4 | O=C1OCCN1Nc1ccnc2cc(C(F)(F)F)ccc12 [UC-177614] |  |  |  | 87.3 ± 9.6 | 90 ± 3.1 |  | 
5 | O=C(NNc1ccnc2c(C(F)(F)F)cccc12)c1cc2ccccc2[nH]1 [UC-177628] |  | 2.84 |  | 8.7 ± 4.7 | 12.3 ± 9 | inhibited RhoA-GTP formation | 
6 | O=C(NNc1ccnc2cc(Cl)ccc12)c1cc2ccccc2[nH]1 [UC-177629] |  | 2.39 |  | 7.3 ± 5.9 | 10.8 ± 3 | inhibited RhoA-GTP formation | 
7 | Cc1cc(NNC(=O)c2cc3ccccc3[nH]2)nc2ccccc12 [UC-177630] |  | > 20 |  | 73 ± 21.6 | 85 ± 15.3 |  | lost all activity

The next lines start with results.

Row | IC50 (washed human platelets; [3]) [µM] | IC50 (washed human platelets; [4]) [µM] | LARG binding to RhoA (RhoA-LARG interaction) | Compound | activity at 20 µM (washed human platelets; [1]) [%] | activity at 20 µM (washed human platelets; [2]) [%] | RhoA-GTP formation (RhoA) | activity in collagen-induced platelet aggregation (SAR statement) (washed human platelets; relative to the quinoline analogs)
8 | 5.47 |  |  | S=C(NNc1ccnc2ccccc12)Nc1ccccc1 [UC-177615] | 9.7 ± 6 | 11.4 ± 9.9 |  | 
9 | 4.9 |  |  | O=C(NNc1ccnc2ccccc12)Nc1ccccc1 [UC-177616] | 11.7 ± 2.3 | 10.6 ± 3.6 |  | 
10 |  | 5.64 |  | O=C(NNc1ccnc2ccccc12)c1ccc(Cl)c(Cl)c1 [UC-177617] | 13 ± 10.4 | 26.8 ± 9 |  | 
11 |  | > 20 | showed no effects | O=C(NNc1ccnc2ccccc12)c1cc2ccccc2[nH]1 [UC-177626] | 86 ± 14.4 | 87.6 ± 19.4 |  | 
12 | 2.22 | 2.23 |  | O=C(NNc1ccnc2cc(C(F)(F)F)ccc12)c1cc2ccccc2[nH]1 [UC-177627] | 17.7 ± 11.4 | 19 ± 17.7 |  | 
13 |  | > 20 |  | Cc1ccc(C(=O)NNc2ccnc3ccccc23)cc1 [UC-177631] | 87.7 ± 13.1 | 90.4 ± 3.7 |  | 
14 |  | > 20 |  | Cc1ccc(C(=O)NNc2ccnc3cc(C(F)(F)F)ccc23)cc1 [UC-177632] | 86.7 ± 11 | 93.1 ± 12.8 |  | 
